From patent US7638535B2, “4-(aminomethyl)-piperidine benzamides as 5HT4-antagonists” (Janssen Pharmaceutica N.V., priority 2003, dated 2009)

Biological target: T1, h5-HT4b (Homo sapiens, UniProt Q13639)
T1 construct: expressed in transfected cells; host or cells: HEK 293 (clone 9), membrane preparation
Assay: 5HT4 antagonism: [3H]GR113808 binding to membranes of h5-HT4b-HEK 293 clone 9 cells
Conditions: displacement of [3H]GR113808 0.1 nM, h5-HT4b-HEK 293 membranes, 30 min at 25° C.; read-out: pIC50 (5HT4 antagonistic data) (converted)
Protocol: h5-HT4b-HEK 293 clone 9 cells were cultured in 150 mm Petri dishes and washed twice with cold PBS. The cells were then scraped from the plates and suspended in 50 mM Tris-HCl buffer, pH 7.4 and harvested by centrifugation at 23,500 rpm for 10 minutes. The pellet was resuspended in 5 mM Tris-HCl, pH 7.4 and homogenized with an Ultra Turrax homogenizer. The membranes were collected by centrifugation at 30,000 rpm for 20 min, resuspended in 50 mM Tris-HCl pH 7.4 and stored at −80° C. For the experiment, assay mixtures (0.5 ml) contained 50 μl of the tritiated ligand (5-HT4 antagonist [^3H]GR113808 0.1 nM) and 0.4 ml membrane preparation (15 μg protein/ml). 50 μl of 10% DMSO was added for total binding. 50 μl of 1 μM of (+)-trans-(1-butyl-3-hydroxy-4-piperidinyl)methyl 8-amino-7-chloro-2,3-dihydro-1,4-benzodioxin-5-carboxylate (a proprietary 5HT4 agonist of Janssen Pharmaceutica) was added for determination of non-specific binding.
The [^3H]GR113808 assay buffer was 50 mM HEPES-NaOH, pH 7.4. The mixtures were incubated for 30 min at 25° C. The incubation was terminated by filtration over a Unifilter 96 GF/B presoaked in 0.1% polyethylenimine, followed by six washing steps with 50 mM HEPES-NaOH, pH 7.4.

T1 sequence (Q13639 whole entry): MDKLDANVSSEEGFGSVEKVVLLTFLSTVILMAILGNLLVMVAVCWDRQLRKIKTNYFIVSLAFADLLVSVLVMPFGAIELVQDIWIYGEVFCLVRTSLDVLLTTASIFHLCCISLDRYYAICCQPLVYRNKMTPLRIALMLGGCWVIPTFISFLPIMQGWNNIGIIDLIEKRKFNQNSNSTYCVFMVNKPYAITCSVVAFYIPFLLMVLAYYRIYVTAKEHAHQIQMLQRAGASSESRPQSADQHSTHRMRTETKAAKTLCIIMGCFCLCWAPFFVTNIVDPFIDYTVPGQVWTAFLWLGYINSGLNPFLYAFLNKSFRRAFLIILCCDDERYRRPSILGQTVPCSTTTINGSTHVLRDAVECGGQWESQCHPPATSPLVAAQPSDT

Row | SMILES | IC50 [nM]
1 | CCCCNc1cc2c(c(C(=O)NC[C@@H]3CCN(CCCO)C[C@H]3O)c1)OCCCO2 [compound 156] | 46.8
2 | Nc1cc(C(=O)NC[C@@H]2CCN(CC3CCCO3)C[C@H]2O)c2c(c1Br)OCCCO2 (stereo partly shown) [compound 152] | 24
3 | N#CCc1cc2c(c(C(=O)NC[C@@H]3CCN(CC4CCCO4)C[C@H]3O)c1)OCCCO2 (stereo partly shown) [compound 127] | 17
4 | CNc1cc2c(c(C(=O)NC[C@@H]3CCN(CCCOC(C)C)C[C@H]3O)c1)OCCO2 [compound 36] | 21.4
5 | CO[C@@H]1CN(CCCC#N)CC[C@H]1CNC(=O)c1cc(C#N)cc2c1OCCCO2 [compound 208] | 5.62
6 | Nc1cc(C(=O)NC[C@@H]2CCN(CCC3OCCO3)C[C@H]2O)c2c(c1Br)OCCO2 [compound 141] | 43.7
7 | CNc1cc2c(c(C(=O)NC[C@@H]3CCN(CCCC(C)=O)C[C@H]3O)c1)OCCO2 [compound 61] | 14.5
8 | CNCCCCN1CC[C@@H](CNC(=O)c2cc(OC)cc3c2OCCCO3)[C@H](O)C1 [compound 199] | 12.3
9 | COCCCCN1CC[C@@H](CNC(=O)c2cc(C)cc3c2OCCCO3)[C@H](O)C1 [compound 234] | 0.49
10 | Cc1cc2c(c(C(=O)NCC3(O)CCN(CCCC#N)CC3)c1)OCCCO2 [compound 240] | 45.7
11 | Cc1cc2c(c(C(=O)NC[C@@H]3CCN(CCCCOc4ccc(S(N)(=O)=O)cc4)C[C@H]3O)c1)OCCCO2 [compound 194] | 0.589
12 | CCCCN1CC[C@@H](CNC(=O)c2cc(NC(C)C)cc3c2OCCCO3)[C@H](O)C1 [compound 174] | 117
13 | CCNc1cc2c(c(C(=O)NC[C@@H]3CCN(CCCC#N)C[C@H]3O)c1)OCCCO2 [compound 182] | 100
14 | CO[C@@H]1CN(CCCO)CC[C@H]1CNC(=O)c1cc(C#N)cc2c1OCCCO2 [compound 207] | 37.2
15 | CNc1cc2c(c(C(=O)NC[C@@H]3CCN(CCCC(=O)O)C[C@H]3O)c1)OCCCO2 [compound 27] | 2630
16 | Cc1cc2c(c(C(=O)NC[C@@H]3CCN(CCC(N)=O)C[C@H]3O)c1)OCCCO2 [compound 214] | 2.34
17 | Nc1cc2c(c(C(=O)NC[C@@H]3CCN(CCCC(=O)O)C[C@H]3O)c1)OCCCO2 [compound 39] | 1230
18 | Nc1cc(C(=O)NC[C@@H]2CCN(Cc3ccc(F)cc3)C[C@H]2O)c2c(c1Cl)OCCO2 [compound 64] | 15.5
19 | CNCCCCN1CC[C@@H](CNC(=O)c2cc(N)c(Cl)c3c2OCCO3)[C@H](O)C1 [compound 89] | 30.9
20 | CCCNc1cc2c(c(C(=O)NC[C@@H]3CCNC[C@H]3O)c1)OCCCO2 [compound 149] | 3550
21 | COCCCN1CC[C@@H](CNC(=O)c2cc(N)c(Cl)c3c2OCCO3)[C@H](O)C1 [compound 9] | 16.2
22 | CCCCN1CC[C@@H](CNC(=O)c2cc(NC)cc3c2OCCO3)[C@H](O)C1 [compound 116] | 16.2
23 | Nc1cc2c(c(C(=O)NC[C@@H]3CCN(Cc4ccc(F)cc4)C[C@H]3O)c1)OCCCO2 [compound 55] | 64.6
24 | N#Cc1cc2c(c(C(=O)NC[C@@H]3CCN(CCCC(N)=O)C[C@H]3O)c1)OCCCO2 [compound 252] | 4.27

Row | SMILES | IC50 [nM]
25 | CNc1cc2c(c(C(=O)NC[C@@H]3CCN(CCCOC4CCCCC4)C[C@H]3O)c1)OCCO2 [compound 40] | 6.92
26 | COCCCCN1CC[C@@H](CNC(=O)c2cc(C)cc3c2OCCO3)[C@H](O)C1 [compound 248] | 0.224
27 | CNCCCCN1CC[C@@H](CNC(=O)c2cc(NC)cc3c2OCCO3)[C@H](O)C1 [compound 90] | 34.7
28 | CCCCNc1cc2c(c(C(=O)NC[C@@H]3CCN(CCCC#N)C[C@H]3O)c1)OCCCO2 [compound 150] | 120
29 | N#CCCCN1CC[C@@H](CNC(=O)c2cc(C#N)cc3c2OCCCO3)[C@H](O)C1 [compound 160] | 20
30 | CNc1cc2c(c(C(=O)NC[C@@H]3CCN(CC4CCCO4)C[C@H]3O)c1)OCCO2 (stereo partly shown) [compound 19] | 17.4
31 | CNc1cc2c(c(C(=O)NC[C@@H]3CCN(CCOC)C[C@H]3O)c1)OCCO2 [compound 35] | 44.7
32 | CNc1cc2c(c(C(=O)NC[C@@H]3CCN(CCCO)C[C@H]3O)c1)OCCO2 [compound 12] | 41.7
33 | Nc1cc(C(=O)NC[C@@H]2CCN(CCCO)C[C@H]2O)c2c(c1Cl)OCCO2 [compound 7] | 17.8
34 | Cc1cc2c(c(C(=O)NC[C@@H]3CCN(CCCS(C)(=O)=O)C[C@H]3O)c1)OCCCO2 [compound 205] | 2.75
35 | Nc1cc(C(=O)NC[C@@H]2CCN(CCC3OCCO3)C[C@H]2O)c2c(c1Cl)OCCCO2 [compound 52] | 14.8
36 | CCCCN1CC[C@@H](CNC(=O)c2cc(N)c(Br)c3c2OCCCO3)[C@H](O)C1 [compound 181] | 8.51
37 | CCCCN1CC[C@@H](CNC(=O)c2cc(N)c(Cl)c3c2OCCCO3)[C@H](O)C1 [compound 46] | 8.32
38 | COCCN1CC[C@@H](CNC(=O)c2cc(N)c(Cl)c3c2OCCCO3)[C@H](O)C1 [compound 79] | 39.8
39 | CNCCCCN1CC[C@@H](CNC(=O)c2cc(C)cc3c2OCCCO3)[C@H](O)C1 [compound 173] | 3.02
40 | N#CCc1cc2c(c(C(=O)NC[C@@H]3CCN(CCC4OCCO4)C[C@H]3O)c1)OCCCO2 [compound 123] | 43.7
41 | N#CCN1CC[C@@H](CNC(=O)c2cc(N)c(Cl)c3c2OCCCO3)[C@H](O)C1 [compound 82] | 6170
42 | CNc1cc(C(=O)NC[C@@H]2CCN(CCCC#N)C[C@H]2O)c2c(c1Cl)OCCO2 [compound 130] | 55
43 | COCc1cc2c(c(C(=O)NC[C@@H]3CCN(CCCO)C[C@H]3O)c1)OCCCO2 [compound 122] | 32.4
44 | N#CCCCN1CC[C@@H](CNC(=O)c2cc(N)cc3c2OCCCO3)[C@H](O)C1 [compound 3] | 38
45 | Nc1cc(C(=O)NC[C@@H]2CCN(CCCO)C[C@H]2O)c2c(c1Br)OCCO2 [compound 140] | 93.3
46 | Cc1cc2c(c(C(=O)NC[C@@H]3CCN(CCCCNc4ncccn4)C[C@H]3O)c1)OCCCO2 [compound 230] | 0.501
47 | CNc1cc2c(c(C(=O)NC[C@@H]3CCN(CCCC#N)C[C@H]3O)c1)OCCO2 [compound 20] | 52.5
48 | COCCCCN1CC[C@@H](CNC(=O)c2cc(N)cc3c2OCCO3)[C@H](O)C1 [compound 41] | 15.5

Row | SMILES | IC50 [nM]
49 | Nc1cc2c(c(C(=O)NC[C@@H]3CCN(CCCC(=O)O)C[C@H]3O)c1)OCCO2 [compound 18] | 195
50 | Nc1cc2c(c(C(=O)NC[C@@H]3CCN(CCC4OCCO4)C[C@H]3O)c1)OCCO2 [compound 108] | 25.7
51 | Cc1cc2c(c(C(=O)NC[C@@H]3CCN(CCCOC(=O)N4CCCC4)C[C@H]3O)c1)OCCCO2 [compound 250] | 0.759
52 | Nc1cc(C(=O)NC[C@@H]2CCN(CCCO)C[C@H]2O)c2c(c1Br)OCCCO2 [compound 147] | 43.7
53 | Cc1nccnc1NCCN1CC[C@@H](CNC(=O)c2cc(N)c(Cl)c3c2OCCCO3)[C@H](O)C1 [compound 92] | 12
54 | COCCCN1CC[C@@H](CNC(=O)c2cc(C)cc3c2OCCCO3)[C@H](OC)C1 [compound 206] | 3.16
55 | CNCCCN1CC[C@@H](CNC(=O)c2cc(NC)cc3c2OCCCO3)[C@H](O)C1 [compound 81] | 1150
56 | COCCCN1CC[C@@H](CNC(=O)c2cc(N)cc3c2OCCCO3)[C@H](O)C1 [compound 111] | 20
57 | CCCCNc1cc2c(c(C(=O)NC[C@@H]3CCN(CCC4OCCO4)C[C@H]3O)c1)OCCCO2 [compound 144] | 112
58 | Nc1cc(C(=O)NC[C@@H]2CCN(CCOCCO)C[C@H]2O)c2c(c1Cl)OCCO2 [compound 70] | 89.1
59 | CNc1cc2c(c(C(=O)NC[C@@H]3CCN(CCCOC)C[C@H]3O)c1)OCCO2 [compound 115] | 16.2
60 | CNc1cc2c(c(C(=O)NC[C@@H]3CCN(CCCCOC)C[C@H]3O)c1)OCCO2 [compound 54] | 14.8
61 | CNc1cc2c(c(C(=O)NC[C@@H]3CCN(CCNS(C)(=O)=O)C[C@H]3O)c1)OCCCO2 [compound 102] | 120
62 | Nc1cc(C(=O)NC[C@@H]2CCN(CCCC(=O)O)C[C@H]2O)c2c(c1Cl)OCCO2 [compound 25] | 138
63 | COCCN1CC[C@@H](CNC(=O)c2cc(N)cc3c2OCCO3)[C@H](O)C1 [compound 32] | 63.1
64 | COc1cc2c(c(C(=O)NC[C@@H]3CCNC[C@H]3O)c1)OCCCO2 [compound 88] | 257
65 | CNCCCCN1CC[C@@H](CNC(=O)c2cc(N)cc3c2OCCCO3)[C@H](O)C1 [compound 106] | 363
66 | Cc1cc2c(c(C(=O)NC[C@@H]3CCN(CCCNS(C)(=O)=O)C[C@H]3O)c1)OCCCO2 [compound 189] | 1.86
67 | Nc1cc(C(=O)NC[C@@H]2CCNC[C@H]2O)c2c(c1Br)OCCO2 [compound 133] | 537
68 | CNc1cc2c(c(C(=O)NC[C@@H]3CCN(Cc4ccc(F)cc4)C[C@H]3O)c1)OCCCO2 [compound 74] | 214
69 | CC(C)Nc1cc2c(c(C(=O)NC[C@@H]3CCN(CCC4OCCO4)C[C@H]3O)c1)OCCCO2 [compound 169] | 32.4
70 | COCCCCN1CC[C@@H](CNC(=O)c2cc(N)c(Cl)c3c2OCCCO3)[C@H](O)C1 [compound 58] | 14.1
